Experimental findings from patent US20100286193A1, “Novel Azabicyclo[3.2.1]Oct-2-Ene Derivatives and Their Use as Monoamine Neurotransmitter Re-Uptake Inhibitors” (priority 2005, published 2010) are described below.

pIC50: −log10 of the molar value. Structures can show the parent of a compound that is named as a salt.

The target of data set [1] is T1, dopamine (DA) reuptake in synaptosomes (Rattus norvegicus, UniProt P23977).
T1 construct: in synaptosomes as described in WO 97/16451; from tissue
Put plainly: Inhibition of dopamine reuptake in synaptosomes. The class given is biochemical. The note with it: 3H-DA, as described in WO 97/16451, read-out: DA-uptake IC50.

In data set [2] the target is T2, serotonine (5-HT) reuptake in synaptosomes (Rattus norvegicus, UniProt P31652).
T2 construct: in synaptosomes as described in WO 97/16451; from tissue
In words: Inhibition of serotonin reuptake in synaptosomes. The class given is biochemical. Particulars: 3H-5-HT, as described in WO 97/16451, read-out: 5-HT-uptake IC50.

For data set [3], the target named is T3, noradrenaline (NA) reuptake in synaptosomes (Rattus norvegicus, UniProt Q63380).
T3 construct: in synaptosomes as described in WO 97/16451; from tissue
Put plainly: Inhibition of noradrenaline reuptake in synaptosomes. It counts as biochemical. Particulars: 3H-NA, as described in WO 97/16451, read-out: NA-uptake IC50.

T1 sequence (P23977 whole entry): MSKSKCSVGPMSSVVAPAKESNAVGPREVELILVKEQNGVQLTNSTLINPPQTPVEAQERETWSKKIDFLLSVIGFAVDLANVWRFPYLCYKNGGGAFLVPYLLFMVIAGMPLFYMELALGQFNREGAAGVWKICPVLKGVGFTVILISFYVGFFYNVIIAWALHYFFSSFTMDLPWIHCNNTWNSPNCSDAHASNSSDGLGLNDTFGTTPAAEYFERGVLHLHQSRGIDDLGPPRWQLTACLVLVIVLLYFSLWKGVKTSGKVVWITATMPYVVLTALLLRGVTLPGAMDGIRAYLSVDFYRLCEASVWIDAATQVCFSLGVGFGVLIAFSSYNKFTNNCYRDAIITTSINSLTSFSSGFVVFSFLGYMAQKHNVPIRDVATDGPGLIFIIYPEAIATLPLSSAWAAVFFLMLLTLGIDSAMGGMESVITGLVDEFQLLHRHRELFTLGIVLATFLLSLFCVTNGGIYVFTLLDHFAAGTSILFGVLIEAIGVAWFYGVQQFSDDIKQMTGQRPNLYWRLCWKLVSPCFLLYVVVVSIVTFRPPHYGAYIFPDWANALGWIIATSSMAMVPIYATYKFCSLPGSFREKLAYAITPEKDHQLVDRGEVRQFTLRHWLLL
T3 sequence (Q63380 1-617): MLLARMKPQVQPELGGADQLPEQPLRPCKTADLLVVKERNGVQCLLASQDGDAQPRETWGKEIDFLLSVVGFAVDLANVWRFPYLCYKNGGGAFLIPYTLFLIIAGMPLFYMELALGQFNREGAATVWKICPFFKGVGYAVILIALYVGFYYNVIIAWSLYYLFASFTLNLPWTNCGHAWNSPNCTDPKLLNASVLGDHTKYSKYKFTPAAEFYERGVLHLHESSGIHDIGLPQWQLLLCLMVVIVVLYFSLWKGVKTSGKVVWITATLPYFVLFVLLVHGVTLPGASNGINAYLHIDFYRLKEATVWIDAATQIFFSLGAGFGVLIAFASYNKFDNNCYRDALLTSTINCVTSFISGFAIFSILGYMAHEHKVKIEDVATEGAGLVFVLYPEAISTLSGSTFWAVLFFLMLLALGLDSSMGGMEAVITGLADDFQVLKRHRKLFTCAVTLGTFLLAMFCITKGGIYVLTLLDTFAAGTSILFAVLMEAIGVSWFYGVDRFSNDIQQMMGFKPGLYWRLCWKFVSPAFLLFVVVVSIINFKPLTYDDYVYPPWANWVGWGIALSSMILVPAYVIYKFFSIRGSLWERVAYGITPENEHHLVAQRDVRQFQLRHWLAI
T2 sequence (P31652 whole entry): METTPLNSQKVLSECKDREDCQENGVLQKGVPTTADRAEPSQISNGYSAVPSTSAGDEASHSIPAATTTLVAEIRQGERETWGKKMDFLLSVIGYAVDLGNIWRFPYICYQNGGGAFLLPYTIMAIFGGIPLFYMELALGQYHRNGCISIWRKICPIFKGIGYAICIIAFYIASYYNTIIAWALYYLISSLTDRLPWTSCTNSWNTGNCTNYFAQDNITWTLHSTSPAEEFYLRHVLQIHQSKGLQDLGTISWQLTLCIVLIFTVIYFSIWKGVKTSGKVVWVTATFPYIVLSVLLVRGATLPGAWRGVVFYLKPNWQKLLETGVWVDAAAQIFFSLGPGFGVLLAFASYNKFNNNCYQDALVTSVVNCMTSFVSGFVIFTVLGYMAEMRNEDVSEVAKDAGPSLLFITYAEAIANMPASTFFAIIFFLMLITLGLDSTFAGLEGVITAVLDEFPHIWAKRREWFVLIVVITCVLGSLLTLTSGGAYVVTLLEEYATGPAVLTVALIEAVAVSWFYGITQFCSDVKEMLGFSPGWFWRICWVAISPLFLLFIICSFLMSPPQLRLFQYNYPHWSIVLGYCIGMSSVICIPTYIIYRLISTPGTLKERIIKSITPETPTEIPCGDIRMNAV

Take `Cc1cc(C2=CC3CCC(C2)N3)ccc1Cl` (single isomer, unassigned; (+)) (as salt: tartaric acid salt) [(+)-3-(4-Chloro-3-methylphenyl)-8-H-8-azabicyclo[3.2.1]oct-2-ene D-tartaric acid salt]: the melting point is 164 to 177 °C.
On the same count and under the same terms, the same measure for `Cc1ccc(C2=CC3CCC(C2)N3)cc1Cl` (single isomer, unassigned; (-)) (as salt: tartaric acid salt) [(−)-3-(3-Chloro-4-methylphenyl)-8-H-8-azabicyclo[3.2.1]oct-2-ene L-tartaric acid salt]: 156.3 to 161.5 °C.
Regarding `Cc1ccc(C2=CC3CCC(C2)N3)cc1Cl` (single isomer, unassigned; (-)) [(−)-3-(3-Chloro-4-methylphenyl)-8-H-8-azabicyclo[3.2.1]oct-2-ene L-tartaric acid salt], the figures for the pIC50 in data set [1], in data set [2] and in data set [3] were 6.85, 8.74 and 8.17, respectively.
`Cc1ccc(C2=CC3CCC(C2)N3)cc1Br` (racemic) [(±)-3-(3-Bromo-4-methylphenyl)-8-H-8-azabicyclo[3.2.1]oct-2-ene hydrochloric acid salt]: the negative-log IC50 (pIC50) in data set [1] is 7.89; in data set [2], 8.85; in data set [3], 7.82.
With `Cc1cc(C2=CC3CCC(C2)N3)ccc1Cl` (single isomer, unassigned; (+)) [(+)-3-(4-Chloro-3-methylphenyl)-8-H-8-azabicyclo[3.2.1]oct-2-ene D-tartaric acid salt], the negative logarithm of the IC50 (pIC50) in data set [1] was 6.96; in data set [2] it was 8.64; in data set [3], 8.09.
